Measurements: patent US11708348B2, “Protease inhibitors for treatment of coronavirus infections” (The Scripps Research Institute, priority 2021, dated 2023)
Read-outs that look alike come from different tables or passages of the source.

Test system: SARS-CoV-2 strain USA-WA1/2020
Assay: microbe, parasite or virus in culture
Assay type: cell-based
Conditions: Severe acute respiratory syndrome coronavirus 2, HeLa-ACE2, 24 h, HeLa-ACE2 cells, SARS-CoV-2 infection, 24 h, read-out: EC50, uM (Hela)

Row | Compound | EC50 [µM] | EC50 (class symbols) [µM]
1 | O=C1NCC[C@H]1C[C@H](NC(=O)[C@@H]1[C@H]2CCC[C@H]2CN1C(=O)c1noc2c1COCC2)C(=O)COC(F)(F)F [Compound 549, (1S,3aR,6aS)-2-(6,7-dihydro-4H-pyrano[3,4-d]isoxazole-3-carbonyl)-N-((S)-3-oxo-1-((S)-2-oxopyrrolidin-3-yl)-4-(trifluoromethoxy)butan-2-yl)octahydrocyclo-penta[c]pyrrole-1-carboxamide] | 0.05 to 0.2 | 
2 | CC(C)(C)c1ccc(C(=O)N2CC3(CC3)C[C@H]2C(=O)N[C@@H](C[C@@H]2CCNC2=O)C(=O)COC(F)(F)F)cc1 [Compound 453, (S)-5-(4-(tert-butyl)benzoyl)-N-((S)-3-oxo-1-((S)-2-oxopyrrolidin-3-yl)-4-(trifluoromethoxy)butan-2-yl)-5-azaspiro[2.4]heptane-6-carboxamide] | < 0.05 | 
3 | O=C1NCC[C@H]1C[C@H](NC(=O)[C@@H]1CC2(CC2)CN1C(=O)C(O)c1ccccn1)C(=O)COC(F)(F)F (stereo partly drawn) [Compound 418, (6S)-5-(2-hydroxy-2-(pyridin-2-yl)acetyl)-N-((S)-3-oxo-1-((S)-2-oxopyrrolidin-3-yl)-4-(trifluoromethoxy)butan-2-yl)-5-azaspiro[2.4]heptane-6-carboxamide] | 0.05 to 0.2 | 
4 | O=C(Nc1ccccc1Cl)C(=O)N[C@@H](CC1CCC(F)(F)CC1)C(=O)N[C@@H](C[C@@H]1CCNC1=O)C(=O)COc1c(F)c(F)cc(F)c1F [Compound 88, N1-(2-chlorophenyl)-N2-((S)-3-(4,4-difluorocyclohexyl)-1-oxo-1-(((S)-3-oxo-l-((S)-2-oxopyrrolidin-3-yl)-4-(2,3,5,6-tetrafluorophenoxy)butan-2-yl)amino)propan-2-yl)oxalamide] |  | 0.05 to 0.2
5 | CC(C)(C)NC(=O)C(=O)N1C[C@H]2[C@@H]([C@H]1C(=O)N[C@@H](C[C@@H]1CCNC1=O)C(=O)COC(F)(F)F)C21CC1 [Compound 553, (1R,2S,5S)-3-(2-(tert-butylamino)-2-oxoacetyl)-N-((S)-3-oxo-1-((S)-2-oxopyrrolidin-3-yl)-4-(trifluoromethoxy)butan-2-yl)-3-azaspiro-[bicyclo[3.1.0]hexane-6,1'-cyclopropane]-2-carboxamide] | 0.05 to 0.2 | 
6 | CC(C)(F)C(O)C(=O)N1CC2(CC2)C[C@H]1C(=O)N[C@@H](C[C@@H]1CCNC1=O)C(=O)COC(F)(F)F (stereo partly drawn) [Compound 762, (6S)-5-(3-fluoro-2-hydroxy-3-methylbutanoyl)-N-((S)-3-oxo-1-((S)-2-oxopyrrolidin-3-yl)-4-(trifluoromethoxy)butan-2-yl)-5-azaspiro[2.4]heptane-6-carboxamide] | 0.05 to 0.2 | 
7 | C[C@](O)(C(=O)N1CC2(CC2)C[C@H]1C(=O)N[C@@H](C[C@@H]1CCNC1=O)C(=O)COC(F)(F)F)c1ccccc1 [Compound 365, (S)-5-((R)-2-hydroxy-2-phenylpropanoyl)-N-((S)-3-oxo-1-((S)-2-oxopyrrolidin-3-yl)-4-(trifluoromethoxy)butan-2-yl)-5-azaspiro[2.4]-heptane-6-carboxamide] |  | < 0.05
8 | CC(C)C[C@H](NC(=O)[C@H](O)Cc1ccccc1)C(=O)N[C@@H](C[C@@H]1CCNC1=O)C(=O)COC(F)(F)F [Compound 207, (S)-2-((R)-2-hydroxy-3-phenylpropanamido)-4-methyl-N-((S)-3-oxo-1-((S)-2-oxopyrrolidin-3-yl)-4-(trifluoromethoxy)butan-2-yl)pentanamide] |  | < 0.05
9 | CC(C)C[C@H](NC(=O)C(=O)NC1CCC(F)(F)CC1)C(=O)N[C@@H](C[C@@H]1CCNC1=O)C(=O)COc1c(F)c(F)cc(F)c1F [Compound 151, N^1-(4,4-difluorocyclohexyl)-N^2—((S)-4-methyl-1-oxo-1-(((S)-3-oxo-1-((S)-2-oxopyrrolidin-3-yl)-4-(2,3,5,6-tetrafluorophenoxy)butan-2-yl)amino)pentan-2-yl)oxalamide] |  | 0.05 to 0.2
